Measurements: patent US10590105B2, “1,3-dihydroxy-phenyl derivatives useful as immunomodulators” (BRISTOL-MYERS SQUIBB COMPANY, priority 2016, dated 2020)
pIC50: −log10 of the molar value.

The compounds below were run against PD-1/PD-L1 interaction (PD-1-Ig / PD-L1-His) (Homo sapiens (Human), UniProt Q9NZQ7) (assay: PD-1/PD-L1 Homogenous Time-Resolved Fluorescence (HTRF) binding assay). Details: PD-1/PD-L1 HTRF binding assay; value given as range class; read-out: Range or IC50.
Text: The ability of the compounds of formula (I) to bind to PD-L1 was investigated using a PD-1/PD-L1 Homogenous Time-Resolved Fluorescence (HTRF) binding assay.
Homogenous Time-Resolved Fluorescence (HTRF) Binding Assay.
The interaction of PD-1 and PD-L1 can be assessed using soluble, purified preparations of the extracellular domains of the two proteins. The PD-1 and PD-L1 protein extracellular domains were expressed as fusion proteins with detection tags, for PD-1, the tag was the Fc portion of Immunoglobulin (PD-1-Ig) and for PD-L1 it was the 6 histidine motif (PD-L1-His). All binding studies were performed in an HTRF assay buffer consisting of dPBS supplemented with 0.1% […] bovine serum albumin and 0.05% (v/v) Tween-20. For the h/PD-L1-His binding assay, inhibitors were pre-incubated with PD-L1-His (10 nM final) for 15 m in 4 μl of assay buffer, followed by addition of PD-1-Ig (20 nM final) in 1 μl of assay buffer and further incubation for 15 m. HTRF detection was achieved using europium crypate-labeled anti-Ig (1 nM final) and allophycocyanin (APC) labeled anti-His (20 nM final). Antibodies were diluted in HTRF detection buffer and 5 μl was dispensed on top of the binding reaction. The reaction mixture was allowed to equilibrate for 30 minutes and the resulting signal (665 nm/620 nm ratio) was obtained using an EnVision fluorometer. Additional binding assays were established between the human proteins PD-1-Ig/PD-L2-His (20 & 5 nM, respectively) and CD80-His/PD-L1-Ig (100 & 10 nM, respectively).
Recombinant Proteins. Human PD-1 (25-167) with a C-terminal human Fc domain of immunoglobulin G (Ig) epitope tag [hPD-1 (25-167)-3S-IG] and human PD-L1 (18-239) with a C-terminal His epitope tag [hPD-L1(18-239)-TVMV-His] were expressed in HEK293T cells and purified sequentially by ProteinA affinity chromatography and size exclusion chromatography. Human PD-L2-His and CD80-His was obtained through commercial sources.
Ranges are as follows: A=0.001 to 0.010 micromolar; B=0.011 to 0.150 micromolar; C=0.151 to 10 micromolar.

Sequence of PD-1/PD-L1 interaction (PD-1-Ig / PD-L1-His) (Q9NZQ7 other isoform, or with tags, fused parts or gaps): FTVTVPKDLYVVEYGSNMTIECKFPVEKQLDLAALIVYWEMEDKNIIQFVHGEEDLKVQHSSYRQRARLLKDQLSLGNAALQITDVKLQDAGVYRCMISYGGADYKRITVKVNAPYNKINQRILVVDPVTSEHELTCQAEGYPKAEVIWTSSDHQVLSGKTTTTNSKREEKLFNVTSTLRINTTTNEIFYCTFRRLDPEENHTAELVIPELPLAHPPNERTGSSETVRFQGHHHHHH

Row | Compound | pIC50
1 | Cc1c(COc2cc(OCc3cncc(C#N)c3)c(CN3CCCC[C@H]3C(=O)O)cc2Cl)cccc1-c1cccn(CCCN2CC[C@@H](O)C2)c1=O [Example 1039, (S)-1-(5-chloro-2-((5-cyanopyridin-3-yl)methoxy)-4-((3-(1-(3-((R)-3-hydroxypyrrolidin-1-yl)propyl)-2-oxo-1,2-dihydropyridin-3-yl)-2-methylbenzyl)oxy)benzyl)piperidine-2-carboxylic acid] | 5.00 to 6.82
2 | Cc1nn(-c2cccc(COc3cc(OCc4cncc(C#N)c4)c(CN[C@](C)(CO)C(=O)O)cc3Cl)c2C)c(C)c1CN1CC[C@@H](O)C1 [Example 2009, (R)-2-((5-chloro-2-((5-cyanopyridin-3-yl)methoxy)-4-((3-(4-(((R)-3-hydroxypyrrolidin-1-yl)methyl)-3,5-dimethyl-1H-pyrazol-1-yl)-2-methylbenzyl)oxy)benzyl)amino)-3-hydroxy-2-methylpropanoic acid] | 5.00 to 6.82
3 | Cc1c(COc2cc(OCc3cncc(C#N)c3)c(CNC(C)(C)C(=O)O)cc2Cl)cccc1-c1ccc2occc2c1 [Example 1015, 2-((4-((3-(benzofuran-5-yl)-2-methylbenzyl)oxy)-5-chloro-2-((5-cyanopyridin-3-yl)methoxy)benzyl)amino)-2-methylpropanoic acid] | 6.82 to 7.96
4 | Cc1c(COc2cc(OCc3cncc(C#N)c3)c(C=O)cc2Cl)cccc1-c1ccc2oc(CCN3CC[C@@H](O)C3)nc2c1 [Example 1027, (R)-5-((4-chloro-2-formyl-5-((3-(2-(2-(3-hydroxypyrrolidin-1-yl)ethyl)benzo[d]oxazol-5-yl)-2-methylbenzyl)oxy)phenoxy)methyl)nicotinonitrile] | 5.00 to 6.82
5 | 2-((5-chloro-2-((5-cyanopyridin-3-yl)methoxy)-4-((3-(1-(2-(dimethylamino)ethyl)-1H-benzo[d]imidazol-6-yl)-2-methylbenzyl)oxy)benzyl)amino)-2-methylpropanoic acid and 2-((5-chloro-2-((5-cyanopyridin-3-yl)methoxy)-4-((3-(1-(2-(dimethylamino)ethyl)-1H-benzo[d]imidazol-5-yl)-2-methylbenzyl)oxy)benzyl)amino)-2-methylpropanoic acid [Example 1026] | 5.00 to 6.82
6 | Cc1c(COc2cc(OCc3cncc(C#N)c3)c(CN[C@](C)(CO)C(=O)O)cc2Cl)cccc1-c1ccc2ncoc2c1 [Example 1017, (R)-2-((4-((3-(benzo[d]oxazol-6-yl)-2-methylbenzyl)oxy)-5-chloro-2-((5-cyanopyridin-3-yl)methoxy)benzyl)amino)-3-hydroxy-2-methylpropanoic acid] | 6.82 to 7.96
7 | Cc1c(COc2cc(OCc3cncc(C#N)c3)c(CN[C@](C)(CO)C(=O)O)cc2Cl)cccc1-c1ccc2cccnc2c1 [Example 1001, (R)-2-((5-chloro-2-((5-cyanopyridin-3-yl)methoxy)-4-((2-methyl-3-(quinolin-7-yl)benzyl)oxy)benzyl)amino)-3-hydroxy-2-methylpropanoic acid] | 6.82 to 7.96
8 | Cc1c(COc2cc(OCc3cncc(C#N)c3)c(CN[C@](C)(CO)C(=O)O)cc2Cl)cccc1-c1ccc2ncccc2c1 [Example 1005, (R)-2-((5-chloro-2-((5-cyanopyridin-3-yl)methoxy)-4-((2-methyl-3-(quinolin-6-yl)benzyl)oxy)benzyl)amino)-3-hydroxy-2-methylpropanoic acid] | 5.00 to 6.82
9 | Cc1c(COc2cc(OCc3cncc(C#N)c3)c(CNC(C)(CO)CO)cc2Cl)cccc1-c1nccc(OCCCO)c1Cl [Example 2004, 5-((4-chloro-5-((3-(3-chloro-4-(3-hydroxypropoxy)pyridin-2-yl)-2-methylbenzyl)oxy)-2-(((1,3-dihydroxy-2-methylpropan-2-yl)amino)methyl)phenoxy)methyl)nicotinonitrile] | 8.00 to 9.00
10 | Cc1c(COc2cc(OCc3cncc(C#N)c3)c(CN[C@@](C)(CO)C(=O)O)cc2Cl)cccc1-c1cccn(CCCN2CC[C@@H](O)C2)c1=O [Example 1037, (S)-2-((5-chloro-2-((5-cyanopyridin-3-yl)methoxy)-4-((3-(1-(3-((R)-3-hydroxypyrrolidin-1-yl)propyl)-2-oxo-1,2-dihydropyridin-3-yl)-2-methylbenzyl)oxy)benzyl)amino)-3-hydroxy-2-methylpropanoic acid] | 5.00 to 6.82
11 | Cc1c(COc2cc(OCc3cncc(C#N)c3)c(CN[C@](C)(CO)C(=O)O)cc2Cl)cccc1-c1ccc2scnc2c1 [Example 1021, (R)-2-((4-((3-(benzo[d]thiazol-5-yl)-2-methylbenzyl)oxy)-5-chloro-2-((5-cyanopyridin-3-yl)methoxy)benzyl)amino)-3-hydroxy-2-methylpropanoic acid] | 8.00 to 9.00
12 | Cc1c(OCCCN2CC[C@@H](O)C2)cccc1-c1ccnc(COc2cc(OCc3cncc(C#N)c3)c(CN3CCCC[C@H]3C(=O)O)cc2Cl)c1C [Example 2011, (S)-1-(5-chloro-2-((5-cyanopyridin-3-yl)methoxy)-4-((4-(3-(3-((R)-3-hydroxypyrrolidin-1-yl)propoxy)-2-methylphenyl)-3-methylpyridin-2-yl)methoxy)benzyl)piperidine-2-carboxylic acid] | 6.82 to 7.96
13 | Cc1c(COc2cc(OCc3cncc(C#N)c3)c(CN3CCCC[C@@H]3C(=O)O)cc2Cl)cccc1-c1ccc2nccnc2c1 [Example 1033, (R)-1-(5-chloro-2-((5-cyanopyridin-3-yl)methoxy)-4-((2-methyl-3-(quinoxalin-6-yl)benzyl)oxy)benzyl)piperidine-2-carboxylic acid] | 6.82 to 7.96
14 | Cc1c(COc2cc(OCc3cncc(C#N)c3)c(CO)cc2Cl)cccc1-c1cccc(OCCCN2CC[C@@H](O)C2)n1 [Example 1031, (R)-5-((4-chloro-2-(hydroxymethyl)-5-((3-(6-(3-(3-hydroxypyrrolidin-1-yl)propoxy)pyridin-2-yl)-2-methylbenzyl)oxy)phenoxy)methyl)nicotinonitrile] | 5.00 to 6.82
15 | Cc1c(COc2cc(OCc3cncc(C#N)c3)c(CN[C@](C)(CO)C(=O)O)cc2Cl)cccc1-c1ccc2occc2c1 [Example 1013, (R)-2-((4-((3-(benzofuran-5-yl)-2-methylbenzyl)oxy)-5-chloro-2-((5-cyanopyridin-3-yl)methoxy)benzyl)amino)-3-hydroxy-2-methylpropanoic acid] | 6.82 to 7.96
16 | CCC(CO)(CO)NCc1cc(Cl)c(OCc2nccc(-c3cccc(OCCCN4CCCCC4)c3C)c2C)cc1OCc1cncc(C#N)c1 [Example 2016, 5-((4-chloro-2-(((1-hydroxy-2-(hydroxymethyl)butan-2-yl)amino)methyl)-5-((3-methyl-4-(2-methyl-3-(3-(piperidin-1-yl)propoxy)phenyl)pyridin-2-yl)methoxy)phenoxy)methyl)nicotinonitrile] | 8.00 to 9.00
17 | Cc1c(COc2cc(OCc3cncc(C#N)c3)c(CN3CCCC[C@H]3C(=O)O)cc2Cl)cccc1-c1cnc2ccccc2c1 [Example 1003, (S)-1-(5-chloro-2-((5-cyanopyridin-3-yl)methoxy)-4-((2-methyl-3-(quinolin-3-yl)benzyl)oxy)benzyl) piperidine-2-carboxylic acid] | 5.00 to 6.82
18 | Cc1c(COc2cc(OCc3cncc(C#N)c3)c(CN[C@](C)(CO)C(=O)O)cc2Cl)cccc1-c1cccn(CCCN2CC[C@@H](O)C2)c1=O [Example 1038, (R)-2-((5-chloro-2-((5-cyanopyridin-3-yl)methoxy)-4-((3-(1-(3-((R)-3-hydroxypyrrolidin-1-yl)propyl)-2-oxo-1,2-dihydropyridin-3-yl)-2-methylbenzyl)oxy)benzyl)amino)-3-hydroxy-2-methylpropanoic acid] | 5.00 to 6.82
